Measurements taken from article doi:10.1101/2020.02.18.954925v1 (biorxiv, 2020).

Molecular target: Lpg2603 10-C (Legionella pneumophila, UniProt Q5ZSB6)
Assay: biochemical

Chain of Lpg2603 10-C (Q5ZSB6 10-434 limits assumed): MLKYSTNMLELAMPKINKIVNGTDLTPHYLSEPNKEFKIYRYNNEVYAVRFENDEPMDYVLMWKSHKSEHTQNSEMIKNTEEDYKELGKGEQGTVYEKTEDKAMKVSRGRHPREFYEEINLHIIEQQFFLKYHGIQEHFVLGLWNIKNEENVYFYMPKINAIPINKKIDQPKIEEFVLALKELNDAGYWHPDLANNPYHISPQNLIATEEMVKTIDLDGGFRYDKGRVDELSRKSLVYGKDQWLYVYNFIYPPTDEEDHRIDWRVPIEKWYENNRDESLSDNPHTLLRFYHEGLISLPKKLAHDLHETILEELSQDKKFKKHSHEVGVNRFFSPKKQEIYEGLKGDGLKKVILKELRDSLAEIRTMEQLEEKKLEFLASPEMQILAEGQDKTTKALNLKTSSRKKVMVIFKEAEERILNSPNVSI

With O=P(O)(O)O[C@H]1[C@H](OP(=O)(O)O)[C@@H](OP(=O)(O)O)[C@H](OP(=O)(O)O)[C@@H](OP(=O)(O)O)[C@H]1OP(=O)(O)O [inositol hexakisphosphate] the Kd was about 315 µM.
